From patent publication US12161642B2, “Ferrochelatase inhibitors and methods of use” (INDIANA UNIVERSITY RESEARCH AND TECHNOLOGY CORPORATION, priority 2018, dated 2024)
Like-named read-outs stand apart in the source and are kept apart here.

Assays:
[1] = biological target: recombinant human FECH (Homo sapiens (Human), UniProt P22830); experiment: FECH enzymatic activity assay (Ni2+ mesoporphyrin IX formation, absorbance at 550 nm); assay type: biochemical
Method: The human FECH expression plasmid pHDTF20 was obtained in E. coli cells from the Dailey Lab (University of Georgia). The cells were grown in Circlegrow medium (MP Biomedicals, LLC #3000-122) with ampicillin for 20 hours. Cells were harvested, lysed in a Tris-MOPS buffer and purified by immobilized metal affinity chromatography using HisPur Cobalt resin (Thermo Fisher #89965).
The activity assay buffer was 100 mM Tris-HCl pH 8.0 with 0.05% octyl glucoside detergent. Assay reagents included 100 μM NiCl (Sigma #339350), 0.75 μM FECH enzyme and 100 μM mesoporphyrin (Sigma #258806) prepared in ammonium hydroxide (Santa Cruz #sc-214535).
The kinetic assay was optimized for a 384-well format. For the 384-well assay, each well contained a 50 μL reaction with 40 μL buffer, 5 μL mesoporphyrin solution, 5 μL NiCl and FECH solution. […] This time point was used for the chemical screen.
A mixture of assay buffer, NiCl and FECH enzyme (15 μL) was added to all wells on the assay plate using a MulitFlo dispenser. To start the reaction, 15 μL of a 333 μM mesoporphyrin solution in assay buffer was added to the plate, the plate spun down and the absorbance at OD=550 nm immediately read to establish a read at time 0. Plates were read for absorbance at OD=550 nm again at t=20 minutes and the activity was expressed as the change in the absorbance over the 20 minute reaction.
Compounds, reordered from ChemDiv or synthesized as described above, were made to 10 mM in DMSO and tested in the FECH enzymatic assay at final concentrations of […] 100 μM (1% final DMSO concentration). IC50 values for the compounds were determined using GraphPad Prism software.
A kinetic assay to monitor FECH enzymatic activity was adapted from a published protocol (Burden et a., Biochim Biophys Acta 1435, 191-197 (1999)).

[2] = tested on: FECH in HRECs; experiment: PPIX accumulation assay in HRECs; assay type: cell-based, human; details: after 5-ALA treatment; vs. DMSO control
Method: To confirm that ferrochelatase is inhibited in HRECs after treatment with compounds, the buildup of FECH's substrate PPIX was assayed fluorometrically. HRECs were plated for 80% confluency at the time of treatment in 6 cm dishes coated with attachment factor. Cells were then treated with compound in DMSO (1% DMSO final concentration) for 2 hours at 37° C. 5-Aminolevulinic acid, the first dedicated precursor in the heme synthesis pathway, was then added to the cells at 1 mM and allowed to incubate at 37° C. for another 2 hours. Cells were washed with PBS and flash frozen. Cells were lysed in 200 μL RIPA buffer and cleared by centrifugation at 14,000 g for 15 minutes at 4° C. The cleared lysates (20 μL) were added to wells of a 384 well plate in triplicate. An equal volume of 2M HC104 prepared in methanol was added to each well and PPIX was detected by immediately reading fluorescence on a Biotek Synergy H1 plate reader at 406 nm excitation and 610 nm emission. Total PPIX accumulation was determined by comparing fluorescence output with PPIX standards, prepared in DMSO and diluted in RIPA buffer and 2M HC104 (1:1 ratio) and read on the same plate. Protein in the cleared lysates was quantified with a standard Bradford assay and the amount of PPIX accumulation is expressed per mg protein.

[3] = tested on: HRECs; experiment: HREC proliferation assay (alamarBlue), GI50 determination; assay type: cell-based, human; details: proliferation of HRECs
Method: Human retinal microvascular endothelial cells (HRECs) were cultured in EGM-2 medium (Lonza). Cells (2500/well) in EGM-2 medium were plated in 48 wells in the center of a 96-well black with clear bottom TC treated plate are allowed to attach overnight. The cells were treated with compounds such that final assay concentrations were 100 μM, 30 μM, 10 μM, 3 μM, 1 μM, 100 nM, and 10 nM with DMSO control (1% final DMSO concentration). Cells were allowed to proliferate for 44 hours prior to addition of alamarBlue. The alamarBlue reagent is a flurorometric/colorimetric redox reagent that is reduced in the presence of growing cells. The assay was completed with a read of fluorescence at excitation of 560 nm and emission of 590 nm. GI50 values were determined using GraphPad Prism software.

[4] = tested on: HRECs; experiment: Matrigel-based tube formation assay; assay type: cell-based, human; details: 8 hours, total tubule length vs. DMSO control
Method: The Matrigel-based tube formation assay was performed. Briefly, 50 μL Matrigel was allowed to solidify in a 96-well black, clear bottom plate at 37° C. for 20 minutes. HRECs were added to the solid Matrigel at 15,000 cells/well in 100 μL EGM-2 and dosed with appropriate concentrations of compound in DMSO, 1 μL/well. Tube formation was observed every 2 hours by brightfield microscopy and images were taken after 8 hours of tube formation. Six images per treatment were analyzed using the AngiogenesisAnalyzer plugin for ImageJ and HREC total tubule length for treated cells was normalized to DMSO controls. Statistical analysis was completed using GraphPad Prism, with ANOVA followed by Dunnett's post hoc tests used to compare treatments to control (DMSO).

[5] = recombinant FECH, read-out: FECH IC50

Chain of recombinant human FECH (P22830 55-423): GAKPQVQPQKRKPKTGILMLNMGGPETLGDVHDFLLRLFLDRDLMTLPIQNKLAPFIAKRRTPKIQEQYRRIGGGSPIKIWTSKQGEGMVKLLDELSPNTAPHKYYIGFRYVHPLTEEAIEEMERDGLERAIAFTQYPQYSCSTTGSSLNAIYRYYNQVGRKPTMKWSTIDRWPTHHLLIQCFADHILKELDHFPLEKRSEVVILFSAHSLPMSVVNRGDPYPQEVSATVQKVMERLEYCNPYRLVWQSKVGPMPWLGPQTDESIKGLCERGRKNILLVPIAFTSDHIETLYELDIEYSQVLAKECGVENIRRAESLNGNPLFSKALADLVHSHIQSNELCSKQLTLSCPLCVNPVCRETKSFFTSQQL

Row | IC50 [1, 5] [µM] | FECH activity inhibition ([1]; 10 μM) | IC50 ([1]; positive control, in our assay, read-out: IC50 (FECH inhibition)) [µM] | Compound | buildup of PPIX in HRECs [2] | GI50 ([3]; Homo sapiens, HREC, 44 h) [µM] | tube formation of HRECs [4] | GI50 ([3]; 44 hours) [µM]
1 | 92 | – | – | CCCc1cc(=O)n2nc(CNc3ccccc3C)nc2[nH]1 [Example 5a, 5-propyl-2-((o-tolylamino)methyl)-[1,2,4]triazolo[1,5-a]pyrimidin-7(4H)-one] | – | 75.5 | blocked tube formation | –
2 | 0.293 | – | – | CCCc1cc(=O)n2nc(CNc3ccc(C)cc3)nc2[nH]1 [Example 5c, 5-propyl-2-((p-tolylamino)methyl)-[1,2,4]triazolo[1,5-a]pyrimidin-7(4H)-one] | – | 28.3 | blocked tube formation | –
3 | > 100 | – | – | CCCc1cc(=O)n2nc(CNc3ccccc3Cl)nc2[nH]1 [Example 5d, 2-(((2-chlorophenyl)amino)methyl)-5-propyl-[1,2,4]triazolo[1,5-a]pyrimidin-7(4H)-one] | – | 25.7 | blocked tube formation | –
4 | 28.1 | – | – | Cc1cccc(NCc2nc3[nH]c(C(C)C)cc(=O)n3n2)c1 [Example 5s, 5-isopropyl-2-((m-tolylamino)methyl)-[1,2,4]triazolo[1,5-a]pyrimidin-7(4H)-one] | – | > 100 | – | –
5 | 0.0916 | – | – | CCCc1cc(=O)n2nc(CNc3ccc(Cl)cc3)nc2[nH]1 [Example 5f, 2-(((4-chlorophenyl)amino)methyl)-5-propyl-[1,2,4]triazolo[1,5-a]pyrimidin-7(4H)-one] | – | – | – | > 100
6 | 9.34 | – | – | Cc1cccc(NCc2nc3[nH]c4c(c(=O)n3n2)CCC4)c1 [Example 5p, 2-((m-tolylamino)methyl)-4,5,6,7-tetrahydro-8H-cyclopenta[d][1,2,4]triazolo[1,5-a]pyrimidin-8-one] | – | > 100 | – | –
7 | 10.6 | – | – | CCCc1cc(=O)n2nc(CNc3ccc(CC)cc3)nc2[nH]1 [Example 5j, 2-(((4-ethylphenyl)amino)methyl)-5-propyl-[1,2,4]triazolo[1,5-a]pyrimidin-7(4H)-one] | – | > 100 | – | –
8 | > 100 | – | – | CCCc1cc(=O)n2nc(CNc3ccc(C(C)(C)C)cc3)nc2[nH]1 [Example 5h, 2-(((4-(tert-butyl)phenyl)amino)methyl)-5-propyl-[1,2,4]triazolo[1,5-a]pyrimidin-7(4H)-one] | – | 3.8 | blocked tube formation | –
9 | 0.0429 | – | – | CCCc1cc(=O)n2nc(CNc3ccc(F)c(F)c3)nc2[nH]1 [Example 5k, 2-(((3,4-difluorophenyl)amino)methyl)-5-propyl-[1,2,4]triazolo[1,5-a]pyrimidin-7(4H)-one] | – | > 100 | – | –

Further lines, the compound ahead of its results:

Row | Compound | IC50 [1, 5] [µM] | FECH activity inhibition ([1]; 10 μM) | IC50 ([1]; positive control, in our assay, read-out: IC50 (FECH inhibition)) [µM] | buildup of PPIX in HRECs [2] | GI50 ([3]; Homo sapiens, HREC, 44 h) [µM] | tube formation of HRECs [4] | GI50 ([3]; 44 hours) [µM]
10 | CC(C)(C)c1ccc(-c2nc3[nH]c(CNc4ccc5ccccc5n4)cc(=O)n3n2)cc1 [Example 4e, 2-(4-(tert-butyl)phenyl)-5-((quinolin-2-ylamino)methyl)-[1,2,4]triazolo[1,5-a]pyrimidin-7(4H)-one] | 0.178 | – | – | induced a buildup of PPIX | 92.5 | blocked tube formation | –
11 | N-methylprotoporphyrin [NMPP, reference compound] | – | completely inhibited | 0.45 | induced a buildup of PPIX | – | – | –
12 | CC(C)(C)c1ccc(-c2nc3[nH]c(CNc4cccc(Cl)c4)cc(=O)n3n2)cc1 [Example 4h, 2-(4-(tert-butyl)phenyl)-5-(((3-chlorophenyl)amino)methyl)-[1,2,4]triazolo[1,5-a]pyrimidin-7(4H)-one] | – | – | – | – | > 100 | blocked tube formation | –
13 | O=c1c2c([nH]c3nc(CNc4cccc(Cl)c4)nn13)CCC2 [Example D433-1831] | 1.57 | – | – | – | > 100 | – | –
14 | CCCc1cc(=O)n2nc(CNc3ccc(C)c(Cl)c3)nc2[nH]1 [Example D433-1748] | 0.57 | – | – | – | > 100 | – | –
15 | CCN(CC)Cc1cc(=O)n2nc(-c3ccc(C(C)(C)C)cc3)nc2[nH]1 [Example 4g, 2-(4-(tert-butyl)phenyl)-5-((diethylamino)methyl)-[1,2,4]triazolo[1,5-a]pyrimidin-7(4H)-one] | > 100 | – | – | – | > 100 | – | –
